From the NIST ThermoML archive (doi:10.1016/j.fluid.2010.10.003)
Numbers after ± are expanded uncertainties.

Key:
[1] = refractive index (Na D-line) (dimensionless); conditions: 298.15 K; 101.33 kPa; Liquid; Standard Abbe refractometry
[2] = 298.15 K, 101.33 kPa, Liquid; for viscosity: Capillary tube (Ostwald / Ubbelohde) method; for mass density: Vibrating tube method
[3] = refractive index (Na D-line) (dimensionless); xn = mol fraction of the nth substance listed; conditions: 298.15 K, 101 kPa, Liquid, Standard Abbe refractometry
[4] = xn = mol fraction of the nth substance listed; conditions: 298.15 K, 101 kPa, Liquid; for viscosity: Capillary tube (Ostwald / Ubbelohde) method; for mass density: Vibrating tube method

CC(=O)OC(C)C [1-methylethyl ethanoate]
Conditions	mass density [kg/m3]	refractive index	viscosity [mPa·s]
[1]	–	1.3748 ± 0.00032	–
[2]	866.21 ± 0.12	–	0.481 ± 0.006

CC(=O)OC(C)C [1-methylethyl ethanoate] + CCCC[n+]1ccn(C)c1.O=S(=O)([N-]S(=O)(=O)C(F)(F)F)C(F)(F)F
Conditions	mass density, [4] [kg/m3]	refractive index, [3]	viscosity, [4] [mPa·s]
x1 = 0.0514	1425.08 ± 0.58	1.42609 ± 0.00037	44.31 ± 0.55
x1 = 0.1096	1411.17 ± 0.54	1.42501 ± 0.00036	38.56 ± 0.47
x1 = 0.1554	1399.42 ± 0.51	1.42412 ± 0.00036	33.87 ± 0.41
x1 = 0.1972	1388.1 ± 0.49	1.42326 ± 0.00036	30.34 ± 0.36
x1 = 0.2961	1358.2 ± 0.43	1.42092 ± 0.00035	22.58 ± 0.27
x1 = 0.4241	1312.34 ± 0.38	1.41733 ± 0.00034	14.46 ± 0.17
x1 = 0.5168	1272.49 ± 0.37	1.4142 ± 0.00034	10.07 ± 0.12
x1 = 0.5998	1230.54 ± 0.34	1.4107 ± 0.00034	6.918 ± 0.081
x1 = 0.7017	1168.62 ± 0.28	1.40538 ± 0.00033	4.356 ± 0.051
x1 = 0.7981	1095.44 ± 0.23	1.39882 ± 0.00033	2.363 ± 0.028
x1 = 0.8918	1005.35 ± 0.15	1.39016 ± 0.00032	1.41 ± 0.016

CCCC[n+]1ccn(C)c1.O=S(=O)([N-]S(=O)(=O)C(F)(F)F)C(F)(F)F + CC(C)O
Conditions	mass density, [4] [kg/m3]	refractive index, [3]	viscosity, [4] [mPa·s]
x2 = 0.0515	1427.23 ± 0.58	1.42621 ± 0.00037	45.44 ± 0.56
x2 = 0.0962	1418.52 ± 0.56	1.42549 ± 0.00036	41.2 ± 0.51
x2 = 0.1921	1397.79 ± 0.51	1.42385 ± 0.00036	33.45 ± 0.4
x2 = 0.3213	1363.98 ± 0.45	1.42124 ± 0.00035	24.5 ± 0.29
x2 = 0.3896	1342.5 ± 0.42	1.41962 ± 0.00035	20.46 ± 0.24
x2 = 0.4869	1306.05 ± 0.4	1.41685 ± 0.00035	15.84 ± 0.19
x2 = 0.5173	1292.91 ± 0.41	1.41578 ± 0.00034	14.67 ± 0.17
x2 = 0.6074	1247.91 ± 0.36	1.4124 ± 0.00034	11.22 ± 0.13
x2 = 0.6943	1192.86 ± 0.33	1.40818 ± 0.00034	8.545 ± 0.099
x2 = 0.7996	1102.82 ± 0.27	1.40129 ± 0.00033	5.859 ± 0.068
x2 = 0.8995	978.52 ± 0.17	1.39152 ± 0.00033	3.898 ± 0.045

CCCC[n+]1ccn(C)c1.O=S(=O)([N-]S(=O)(=O)C(F)(F)F)C(F)(F)F
Conditions	mass density [kg/m3]	refractive index	viscosity [mPa·s]
[1]	–	1.42692 ± 0.001	–
[2]	1436.58 ± 0.62	–	50.68 ± 1.4

CC(C)O [propan-2-ol]
Conditions	mass density [kg/m3]	refractive index	viscosity [mPa·s]
[1]	–	1.37502 ± 0.00033	–
[2]	780.88 ± 0.15	–	2.073 ± 0.024
